± gives the expanded uncertainty stated by the source.
Assay: activity coefficient (dimensionless); of the first substance listed, at infinite dilution; xn = mol fraction of the nth substance listed
Conditions: 101 kPa, Liquid, Chromatography, x1 = 0

Row | SMILES | activity coefficient (328.15 K) | activity coefficient (338.15 K) | activity coefficient (348.15 K) | activity coefficient (358.15 K) | activity coefficient (368.15 K) | activity coefficient (308.15 K) | activity coefficient (318.15 K)
1 | Cc1ccccc1C [1,2-dimethylbenzene] + CCCC[n+]1cccc(C)c1.N#C[N-]C#N | 2.47 ± 0.17 | 2.51 ± 0.17 | 2.58 ± 0.18 | 2.64 ± 0.18 | 2.71 ± 0.18 | – | –
2 | Cc1cccc(C)c1 [1,3-dimethylbenzene] + CCCC[n+]1cccc(C)c1.N#C[N-]C#N | 3.01 ± 0.2 | 3.06 ± 0.21 | 3.14 ± 0.21 | 3.2 ± 0.22 | 3.28 ± 0.22 | – | –
3 | Cc1ccc(C)cc1 [1,4-dimethylbenzene] + CCCC[n+]1cccc(C)c1.N#C[N-]C#N | 2.86 ± 0.19 | 2.92 ± 0.2 | 3.02 ± 0.21 | 3.08 ± 0.21 | 3.17 ± 0.22 | – | –
4 | C1COCCO1 [1,4-dioxane] + CCCC[n+]1cccc(C)c1.N#C[N-]C#N | – | 1.01 ± 0.06 | 1.05 ± 0.07 | 1.08 ± 0.07 | 1.11 ± 0.07 | – | –
5 | C=CCCCCCCCC [1-decene] + CCCC[n+]1cccc(C)c1.N#C[N-]C#N | 93.8 ± 6.4 | 88.4 ± 6.1 | 83.2 ± 5.7 | 78.1 ± 5.4 | 73.9 ± 5.1 | 109 ± 7 | 101 ± 7
6 | C=CCCCCC [1-heptene] + CCCC[n+]1cccc(C)c1.N#C[N-]C#N | 29.7 ± 2 | 28.3 ± 1.9 | 27 ± 1.8 | 25.9 ± 1.8 | 24.8 ± 1.7 | 33.1 ± 2.3 | 31.2 ± 2.1
7 | C#CCCCCC [1-heptyne] + CCCC[n+]1cccc(C)c1.N#C[N-]C#N | 6.38 ± 0.43 | 6.48 ± 0.44 | 6.58 ± 0.45 | 6.67 ± 0.45 | 6.78 ± 0.46 | 6.16 ± 0.42 | 6.27 ± 0.43
8 | C#CCCCC [1-hexyne] + CCCC[n+]1cccc(C)c1.N#C[N-]C#N | 4.35 ± 0.3 | 4.45 ± 0.3 | 4.55 ± 0.31 | 4.62 ± 0.31 | 4.72 ± 0.32 | 4.13 ± 0.28 | 4.25 ± 0.29
9 | CCC[N+](=O)[O-] [1-nitropropane] + CCCC[n+]1cccc(C)c1.N#C[N-]C#N | – | 1.13 ± 0.07 | 1.14 ± 0.07 | 1.15 ± 0.07 | 1.15 ± 0.07 | – | –
10 | C#CCCCCCC [1-octyne] + CCCC[n+]1cccc(C)c1.N#C[N-]C#N | 9.42 ± 0.64 | 9.52 ± 0.65 | 9.6 ± 0.65 | 9.68 ± 0.66 | 9.75 ± 0.67 | 9.22 ± 0.63 | 9.32 ± 0.64
11 | C=CCCC [1-pentene] + CCCC[n+]1cccc(C)c1.N#C[N-]C#N | 14.1 ± 1 | 13.7 ± 0.9 | 13.1 ± 0.9 | 12.6 ± 0.9 | 12.2 ± 0.8 | 15.3 ± 1 | 14.7 ± 1
12 | C#CCCC [1-pentyne] + CCCC[n+]1cccc(C)c1.N#C[N-]C#N | 3.05 ± 0.21 | 3.14 ± 0.21 | 3.21 ± 0.22 | 3.28 ± 0.22 | 3.35 ± 0.23 | 2.9 ± 0.2 | 2.97 ± 0.2
13 | CC(C)CC(C)(C)C [2,2,4-trimethylpentane] + CCCC[n+]1cccc(C)c1.N#C[N-]C#N | 85.8 ± 5.9 | 78.3 ± 5.4 | 72.6 ± 5 | 67 ± 4.6 | 61.7 ± 4.2 | 104 ± 7 | 93.3 ± 6.4
14 | CCC(C)(C)C [2,2-dimethylbutane] + CCCC[n+]1cccc(C)c1.N#C[N-]C#N | 47.4 ± 3.2 | 42.9 ± 2.9 | 39.4 ± 2.7 | 36.4 ± 2.5 | 33.6 ± 2.3 | 57.3 ± 3.9 | 52 ± 3.6
15 | CCOC(C)(C)C [2-ethoxy-2-methylpropane] + CCCC[n+]1cccc(C)c1.N#C[N-]C#N | 17 ± 1.2 | 16.7 ± 1.1 | 16.3 ± 1.1 | 15.9 ± 1.1 | 15.6 ± 1.1 | 18 ± 1.2 | 17.5 ± 1.2
16 | CCCCC(C)=O [2-hexanone] + CCCC[n+]1cccc(C)c1.N#C[N-]C#N | 2.44 ± 0.17 | 2.48 ± 0.17 | 2.54 ± 0.17 | 2.59 ± 0.18 | 2.63 ± 0.18 | – | –
17 | CCC(C)(C)OC [2-methoxy-2-methylbutane] + CCCC[n+]1cccc(C)c1.N#C[N-]C#N | 9.59 ± 0.65 | 9.51 ± 0.65 | 9.44 ± 0.64 | 9.35 ± 0.64 | 9.27 ± 0.63 | 9.8 ± 0.67 | 9.71 ± 0.66
18 | COC(C)(C)C [2-methoxy-2-methylpropane] + CCCC[n+]1cccc(C)c1.N#C[N-]C#N | 6.78 ± 0.46 | 6.78 ± 0.46 | 6.79 ± 0.46 | 6.8 ± 0.46 | 6.8 ± 0.46 | 6.76 ± 0.46 | 6.77 ± 0.46

Row | SMILES | activity coefficient (328.15 K) | activity coefficient (338.15 K) | activity coefficient (348.15 K) | activity coefficient (358.15 K) | activity coefficient (368.15 K) | activity coefficient (308.15 K) | activity coefficient (318.15 K)
19 | CCCC(=O)CC [3-hexanone] + CCCC[n+]1cccc(C)c1.N#C[N-]C#N | – | 2.77 ± 0.19 | 2.82 ± 0.19 | 2.87 ± 0.2 | 2.89 ± 0.2 | – | –
20 | CCC(C)CC [3-methylpentane] + CCCC[n+]1cccc(C)c1.N#C[N-]C#N | 43.1 ± 3 | 39.8 ± 2.7 | 36.9 ± 2.5 | 34.7 ± 2.4 | 32.4 ± 2.2 | 50.9 ± 3.5 | 47 ± 3.2
21 | C=C(C)c1ccccc1 [(1-methylethenyl)benzene] + CCCC[n+]1cccc(C)c1.N#C[N-]C#N | 2.1 ± 0.14 | 2.21 ± 0.15 | 2.33 ± 0.16 | 2.44 ± 0.17 | 2.55 ± 0.17 | – | –
22 | CC(C)=O [acetone] + CCCC[n+]1cccc(C)c1.N#C[N-]C#N | 0.946 ± 0.06 | 0.968 ± 0.061 | 0.999 ± 0.062 | 1.03 ± 0.06 | 1.04 ± 0.07 | – | –
23 | CC#N [acetonitrile] + CCCC[n+]1cccc(C)c1.N#C[N-]C#N | – | 0.736 ± 0.049 | 0.748 ± 0.049 | 0.76 ± 0.05 | 0.764 ± 0.05 | – | –
24 | c1ccccc1 [benzene] + CCCC[n+]1cccc(C)c1.N#C[N-]C#N | 1.37 ± 0.09 | 1.4 ± 0.09 | 1.43 ± 0.09 | 1.47 ± 0.1 | 1.5 ± 0.1 | – | –
25 | CCCCO [butan-1-ol] + CCCC[n+]1cccc(C)c1.N#C[N-]C#N | – | 0.88 ± 0.056 | 0.855 ± 0.055 | 0.84 ± 0.054 | 0.814 ± 0.053 | – | –
26 | C1CCCCCC1 [cycloheptane] + CCCC[n+]1cccc(C)c1.N#C[N-]C#N | 23.6 ± 1.6 | 22.1 ± 1.5 | 20.7 ± 1.4 | 19.5 ± 1.3 | 18.5 ± 1.3 | 27.3 ± 1.9 | 25.2 ± 1.7
27 | C1CCCCC1 [cyclohexane] + CCCC[n+]1cccc(C)c1.N#C[N-]C#N | 19.8 ± 1.4 | 18.5 ± 1.3 | 17.4 ± 1.2 | 16.5 ± 1.1 | 15.6 ± 1.1 | 23 ± 1.6 | 21.2 ± 1.4
28 | O=C1CCCCC1 [cyclohexanone] + CCCC[n+]1cccc(C)c1.N#C[N-]C#N | – | 0.928 ± 0.059 | 0.96 ± 0.06 | 0.988 ± 0.062 | 1.01 ± 0.06 | – | –
29 | C1=CCCCC1 [cyclohexene] + CCCC[n+]1cccc(C)c1.N#C[N-]C#N | 8.55 ± 0.58 | 8.27 ± 0.56 | 7.99 ± 0.54 | 7.76 ± 0.53 | 7.54 ± 0.51 | 9.2 ± 0.63 | 8.87 ± 0.61
30 | C1CCCCCCC1 [cyclooctane] + CCCC[n+]1cccc(C)c1.N#C[N-]C#N | 29.7 ± 2 | 27.8 ± 1.9 | 25.8 ± 1.8 | 24.2 ± 1.7 | 22.7 ± 1.6 | 35.1 ± 2.4 | 32 ± 2.2
31 | C1CCCC1 [cyclopentane] + CCCC[n+]1cccc(C)c1.N#C[N-]C#N | 13.4 ± 0.9 | 12.6 ± 0.9 | 11.9 ± 0.8 | 11.3 ± 0.8 | 10.9 ± 0.7 | 15.1 ± 1 | 14.2 ± 1
32 | CCCCCCCCCC [decane] + CCCC[n+]1cccc(C)c1.N#C[N-]C#N | 219 ± 15 | 198 ± 14 | 179 ± 12 | 163 ± 11 | 149 ± 10 | 275 ± 19 | 244 ± 17
33 | CCOCC [diethyl ether] + CCCC[n+]1cccc(C)c1.N#C[N-]C#N | 6.29 ± 0.43 | 6.26 ± 0.43 | 6.22 ± 0.42 | 6.19 ± 0.42 | 6.15 ± 0.42 | 6.37 ± 0.43 | 6.33 ± 0.43
34 | CCCOCCC [dipropyl ether] + CCCC[n+]1cccc(C)c1.N#C[N-]C#N | 17.2 ± 1.2 | 16.6 ± 1.1 | 16.3 ± 1.1 | 15.6 ± 1.1 | 15.2 ± 1 | 18.3 ± 1.3 | 17.7 ± 1.2
35 | CCO [ethanol] + CCCC[n+]1cccc(C)c1.N#C[N-]C#N | – | 0.549 ± 0.04 | 0.545 ± 0.04 | 0.541 ± 0.04 | 0.537 ± 0.039 | – | –
36 | CCc1ccccc1 [ethylbenzene] + CCCC[n+]1cccc(C)c1.N#C[N-]C#N | 3.21 ± 0.22 | 3.26 ± 0.22 | 3.32 ± 0.23 | 3.35 ± 0.23 | 3.41 ± 0.23 | – | –

Source: the NIST ThermoML archive (doi:10.1016/j.jct.2013.09.007)
